The test system of data set [1] is depolarization-induced 3H-glutamate release from brain nerve terminals. Description: Inhibition of 3H-glutamate release, high [K+] depolarization, rapid superfusion of synaptosomes. It counts as biochemical. The conditions noted are these: rat brain synaptosomes; for % Inhibition of ^3H-Glu Rel @ 3 μM: 3 μM compound; for % Inhibition of ^3H-Glu Rel @ 1 μM: 1 μM compound.

Data set [2] concerns veratridine-induced 3H-glutamate release from brain nerve terminals (voltage-activated presynaptic Na channels). Put plainly: Inhibition of veratridine-induced 3H-glutamate release, rapid superfusion of synaptosomes. The data set is classed as biochemical, rat.
The test system of another data set is presynaptic Ca channels. Description: Inhibition of 45Ca uptake through presynaptic Ca channels in brain synaptosomes. The data set is classed as biochemical, mammalian. The conditions noted are these: high K+ depolarization-induced 45Ca uptake, read-out: IC50, block of ^45Ca uptake. The method, then: Compounds of the invention were tested to determine their ability to inhibit voltage-activated calcium channels in nerve terminals of mammalian brain. Said voltage-activated calcium channels directly control neurotransmitter release (see Nachsen, D. A. et al., J. Gen Physiol., 79:1065-1087 (1982)). The uptake of ^45Ca into brain synaptosomes was performed by an adaptation of the method of Nachsen and Blaustein (J. Physiol., 361:251-258 (1985)), as previously described [Goldin et al., PCT/US92/01050]. The principle of the method involves opening ion permeation through synaptosomal calcium channels by high K^+-induced depolarization of the synaptosomal preparation. The rapid component of ^45Ca uptake measured by this procedure is mediated by presynaptic calcium channels.
Briefly, synaptosomes are prepared by the method of Hajos (Brain Res., 93:485-489 (1975)). Freshly prepared synaptosomes (8 μl) were suspended In low potassium “LK” buffer (containing 3 mM KCl). Test compounds in 8 μl LK were added to synaptosomes to final concentrations ranging from 0.3 μM to 100 μM, and the mixture was preincubated for 5 minutes at room temperature. ^45Ca uptake was then initiated by adding isotope in either LK or in buffer (“HK”) containing high [potassium] (150 mM KCl). After 5 seconds, the ^45Ca uptake was stopped by adding 0.9 ml quench buffer (LK+10 mM EGTA). This solution was then filtered under vacuum and the filters washed with 15 ml of quench buffer.
Washed filters were subjected to scintillation spectrophotometry to determine the extent of ^45Ca uptake. Net depolarization-induced ^45Ca uptake was determined for each concentration of each compound tested, as the difference between ^45Ca uptake in HK and LK buffers. Results were plotted as % inhibition of depolarization-induced ^45Ca uptake vs. [compound] for each compound tested. Representative IC50 for inhibition of depolarization-induced ^45Ca uptake are presented below in the tables (2a-2d) below which together are identified as Table 2.

A further data set deals with L-type Ca channels. Put plainly: Inhibition of 45Ca uptake through L-type (dihydropyridine-sensitive) calcium channels in GH4C1 pituitary cells. It counts as cell-based. The method, then: Compounds of the invention representative of each of the major classes of agents claimed herein were tested to determine their ability to inhibit voltage-activated, dihydropyridine-sensitive L-type calcium channels in clonal GH4C1 pituitary cells. Said voltage-activated L-type calcium channels are found in cardiac muscle, vascular smooth muscle, and the cardiac Purkije cell conduction system. They are the sites of action of the major classes of Ca antagonists employed to treat hypertension, angina, cardiac arrhythmias, and related disorders. L-type Ca channels are also the sites of action of certain neuroprotective dihydropyridine Ca antagonists such as nimodipine.
The uptake of ^45Ca into GH4C1 cells was performed by an adaptation of the method of Tan, K. et al. (J. Biol. Chem., 259:418-426 (1984)). The principle of the method involves activating ion permeation through synaptosomal calcium channels by high K^+-induced depolarization of the synaptosomal preparation. The uptake of ^45Ca measured by this procedure is mediated by presynaptic L-type calcium channels, and is sensitive to dihydropyridine, phenylalkylamine, and benzothiazipine Ca antagonists at therapeutically relevant concentrations [Tashjian et al., ibid.]. The adaptation of the aforementioned method involves growing GH4C1 cells in 96-well culture plates, and is designed to provide a rapid and quantitative determination of the potency of various compounds in inhibiting ^45Ca uptake through L-type Ca channels.
GH4 cells, stored in liquid nitrogen, are suspended in 15 ml growth medium (Ham's F-10 medium plus 15% heat-inactivated horse serum and 2.5% heat-inactivated fetal bovine serum). The cells are centrifuged, resuspended, and then added to T-75 flasks containing 12-15 mls Growth Medium, and incubated at 37° C. for approximately 1 week. The cells are them removed from the T75 flask after dissociation from the walls of the flask by treatment for 5 minutes at 37° C. with 1 mg/ml Viocase. The Viocase is decanted, and the cells are resuspended in ˜200 ml of Growth Medium. The cells are then aliquoted (200 μl/well) into each well of several 96 well plates. The cells are then grown under the aforementioned conditions for 3-4 weeks, with replacement of Growth Medium occurring twice per week. Cells are fed growth medium 24 hours before they are employed for ^45Ca uptake determinations.
At the time of the assay, media Is aspirated from each 96-well plate using a manifold designed to allow 50 μL of liquid to remain in each well. Each plate is washed and aspirated twice with a low K^+ buffer solution “LKHBBS” (in mM 5 KCl, 145 NaCl, 10 Hepes, 1 MgCl2, […], 10 glucose, pH 7.4), 200 μl/well. Each plate is incubated for 10 minutes at 37° C., and aspirated as above. To each well of each plate, 50 μl of HBBS containing the drug to be tested in twice the final concentration is added. The plates are incubated for 10 minutes at room temperature. To each well of each plate, 50 μl of either of two solutions are added:
(a) LKHBBS containing 1 μCi of carrier-free ^45Ca, or
(b) HKHBBS (a high K^+ buffer containing 150 mM KCl and no NaCl, but otherwise identical to LKHBBS).
Each plate is then incubated for 5 minutes at room temperature, aspirated as above, and quenched with 200 μl/well of Quench Buffer (Ca-free LKHBBS containing 10 mM Tris-EGTA). Each plate is aspirated and rinsed with Quench Buffer a second time, then carefully aspirated to dryness. To each well of each plate 100 μl of High Safe II scintillation fluid is added. The plates are sealed, shaken, and subjected to scintillation spectrophotometry on a Microbeta 96-well Scintillation Counter (Wallac, Gaithersburg, Md., USA).
Net depolarization-induced ^45Ca uptake was determined for each concentration of each compound tested, as the difference between ^45Ca uptake in HKBBS and LK buffers. Results were plotted as % inhibition of depolarization-induced ^45Ca uptake vs. [compound] for each compound tested.

In data set [3] the target is Type II neuronal voltage-activated sodium channels (Rattus norvegicus, UniProt P04775). Description: cell-based.
In data set [4] the test system is audiogenic seizures in DBA/2 mice. Description: In vivo anticonvulsant activity in the DBA/2 mouse model (audiogenic seizures). The conditions noted are these: 30 minutes prior to auditory stimulus. The procedure: Compounds were tested for their effectiveness in preventing seizures in DBA/2 mice which have a unique sensitivity to auditory stimulation. Exposure to loud high-frequency sounds can trigger seizure activity in these animals. This sensitivity develops from postnatal day 12 and peaks around day 21 and slowly diminishes as the animals mature. The unusual response to auditory stimulation in this strain of mouse is believed to be due to a combination of early myelination (causing an unusually low excitatory threshold) and delayed development of inhibitory mechanisms. Glutamate, the predominant excitatory neurotransmitter, has been implicated in this response. Blockade of glutamate receptors of the NMDA and AMPA subtypes, prevents audiogenic seizures in these mice. Compounds that block the release of glutamate should similarly act to prevent seizure activity, and may be therapeutic in other neurologic disorders such as stroke, which also involves glutamate-mediated damage.
Mice were injected intraperitoneally with the compound specified in Table V below or with vehicle control, 30 minutes prior to being placed in a bell jar and turning on the auditory stimulus (12 KHz sine wave at 110-120 db). Administered doses are specified in Table V as milligram of compound per kilogram bodyweight of mouse. The auditory stimulus was left on for 60 seconds and mice reactions were timed and recorded.
Percentage inhibition was determined with reference to vehicle controls.

[5] abbreviates: high K+ depolarization-induced 45Ca uptake, read-out: IC50, block of ^45Ca uptake.
Setting [6] is: veratridine (100 μM)-induced, tetrodotoxin-sensitive uptake, CHO cells expressing rat brain Type II Na channels, read-out: IC50, block of ^14C guanidinium uptake.

Counter-ions that a name gives are not always drawn. Like-named read-outs stand apart in the source and are kept apart here.

Type II neuronal voltage-activated sodium channels, sequence (P04775 whole entry): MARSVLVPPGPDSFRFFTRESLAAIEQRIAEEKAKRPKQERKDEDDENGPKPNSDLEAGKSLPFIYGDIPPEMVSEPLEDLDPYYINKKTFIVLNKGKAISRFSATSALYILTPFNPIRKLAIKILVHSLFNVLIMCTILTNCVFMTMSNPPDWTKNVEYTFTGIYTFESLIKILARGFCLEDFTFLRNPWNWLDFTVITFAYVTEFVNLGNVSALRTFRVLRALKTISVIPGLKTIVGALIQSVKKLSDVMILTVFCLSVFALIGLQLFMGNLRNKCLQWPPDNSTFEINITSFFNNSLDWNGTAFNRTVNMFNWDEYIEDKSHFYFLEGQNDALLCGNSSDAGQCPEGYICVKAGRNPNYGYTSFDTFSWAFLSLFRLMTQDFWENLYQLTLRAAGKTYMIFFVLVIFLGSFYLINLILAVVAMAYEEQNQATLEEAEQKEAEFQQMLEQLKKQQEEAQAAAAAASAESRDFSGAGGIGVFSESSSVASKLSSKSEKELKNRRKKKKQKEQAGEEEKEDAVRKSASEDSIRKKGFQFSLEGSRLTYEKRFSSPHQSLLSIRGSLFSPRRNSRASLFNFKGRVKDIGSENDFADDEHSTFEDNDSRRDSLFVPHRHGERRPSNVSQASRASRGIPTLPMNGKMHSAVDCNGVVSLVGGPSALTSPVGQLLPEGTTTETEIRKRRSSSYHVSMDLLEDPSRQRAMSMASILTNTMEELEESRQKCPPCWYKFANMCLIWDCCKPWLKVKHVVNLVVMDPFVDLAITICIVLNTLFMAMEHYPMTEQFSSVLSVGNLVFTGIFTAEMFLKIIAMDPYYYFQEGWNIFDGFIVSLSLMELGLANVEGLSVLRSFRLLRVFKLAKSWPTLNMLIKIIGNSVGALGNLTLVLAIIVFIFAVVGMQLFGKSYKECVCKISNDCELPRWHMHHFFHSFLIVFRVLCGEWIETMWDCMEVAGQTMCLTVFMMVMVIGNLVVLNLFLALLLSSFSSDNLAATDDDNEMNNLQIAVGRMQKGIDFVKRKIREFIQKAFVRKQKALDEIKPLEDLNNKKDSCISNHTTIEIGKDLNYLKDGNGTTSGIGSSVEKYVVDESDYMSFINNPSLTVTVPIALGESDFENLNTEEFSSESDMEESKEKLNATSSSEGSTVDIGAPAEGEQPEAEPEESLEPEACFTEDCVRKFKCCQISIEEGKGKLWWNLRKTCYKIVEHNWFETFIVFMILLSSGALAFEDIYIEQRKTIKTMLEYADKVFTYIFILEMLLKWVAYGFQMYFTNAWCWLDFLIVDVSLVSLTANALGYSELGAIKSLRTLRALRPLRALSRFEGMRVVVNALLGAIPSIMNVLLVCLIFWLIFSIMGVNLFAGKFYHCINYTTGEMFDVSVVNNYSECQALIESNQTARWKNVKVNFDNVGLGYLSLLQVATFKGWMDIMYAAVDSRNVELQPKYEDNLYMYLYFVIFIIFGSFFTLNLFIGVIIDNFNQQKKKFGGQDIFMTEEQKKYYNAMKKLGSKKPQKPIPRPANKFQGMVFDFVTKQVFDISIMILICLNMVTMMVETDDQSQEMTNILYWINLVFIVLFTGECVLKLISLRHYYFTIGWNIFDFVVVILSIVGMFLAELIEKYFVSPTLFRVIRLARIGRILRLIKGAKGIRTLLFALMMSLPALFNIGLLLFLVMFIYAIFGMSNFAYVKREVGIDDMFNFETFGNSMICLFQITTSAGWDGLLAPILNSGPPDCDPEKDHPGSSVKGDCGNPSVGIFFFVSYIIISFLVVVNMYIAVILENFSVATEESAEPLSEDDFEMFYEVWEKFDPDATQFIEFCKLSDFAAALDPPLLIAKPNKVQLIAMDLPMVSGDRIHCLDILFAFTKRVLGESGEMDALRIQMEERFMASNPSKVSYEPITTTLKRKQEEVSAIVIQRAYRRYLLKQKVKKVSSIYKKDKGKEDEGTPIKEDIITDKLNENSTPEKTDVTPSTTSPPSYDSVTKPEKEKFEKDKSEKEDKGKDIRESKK

A word on the IC50: it is the concentration needed to halve the response being measured. For `CCC(C)c1ccc(N(Cc2ccc(C(C)(C)C)cc2)C(=N)N)cc1` (stereo not shown) [Example 1, N-(4-sec-Butylphenyl)-N-(4-tert-butylbenzyl)guanidine.HCl], in data set [1], the “% Inhibition of ^3H-Glu Rel @ 3 μM” value came to 61%. In addition, the “% Inhibition of ^3H-Glu Rel @ 1 μM (*veratridine-induced glutamate release assay)” value in data set [2] (1 μM compound, 50 μM veratridine-induced release, rat brain synaptosomes) is 67* %. Moreover, the results for the IC50 (in the data set with presynaptic Ca channels; in the data set with L-type Ca channels (setting [5]); in data set [3]) were 6100 nM, 1700 nM and 800 nM, respectively. Besides, the “Audiogenic Response % Inhib.” value in data set [4] (10 mg/kg intraperitoneally) is 54%; in data set [4] (20 mg/kg intraperitoneally), 80.5%; in data set [4] (40 mg/kg intraperitoneally), 91%.
For the compound `CC(C)(C)c1ccc(CN(C(=N)N)c2ccc3c4c(cccc24)CC3)cc1` [Example 2], the “% Inhibition of ^3H-Glu Rel @ 1 μM” value in data set [1] came out at 52%. In addition, the “% Inhibition of ^3H-Glu Rel @ 3 μM” value in data set [1] is listed as 61%. Besides, the IC50 in the data set with presynaptic Ca channels is 8100 nM; in the data set on L-type Ca channels (setting [5]) it was 2100 nM; in data set [3] (setting [6]) it was 1000 nM.
On to `N=C(Nc1ccc2c3c(cccc13)CC2)NC(c1ccccc1)c1ccccc1` [Example 3, N-(5-Acenaphthyl)-N′-benzhydrylguanidine.HCl], for which, in data set [1], the “% Inhibition of ^3H-Glu Rel @ 3 μM” value was 53%. In addition, in the data set on L-type Ca channels (setting [5]), the IC50 was determined as 2700 nM.
Turning to `CCC(C)c1ccc(NC(=N)Nc2ccc(C(C)CC)cc2)cc1` (stereo not shown) [Example 4, N,N′-bis(4-sec-Butylphenyl)guanidine.HCl], the “% Inhibition of ^3H-Glu Rel @ 1 μM” value in data set [1] stood at 52%. Moreover, the “% Inhibition of ^3H-Glu Rel @ 3 μM” value in data set [1] is 85%. In addition, the figures for the IC50 (in the data set on presynaptic Ca channels; in the data set on L-type Ca channels (setting [5]); in data set [3] (setting [6])) were 11200 nM, 2100 nM and 800 nM, respectively.
As for `CCC(C)c1ccc(N(C)C(=N)N(C)c2ccc(C(C)CC)cc2)cc1` (stereo not shown) [Example 6], the “% Inhibition of ^3H-Glu Rel @ 1 μM” value in data set [1] is 71%. The “% Inhibition of ^3H-Glu Rel @ 3 μM” value in data set [1] is given as 92%. The IC50 came to 5900 nM in the data set on presynaptic Ca channels, 4300 nM in the data set with L-type Ca channels (setting [5]) and 600 nM in data set [3].
Turning to `Br.N=C(Nc1ccc2c3c(cccc13)-c1ccccc1-2)Nc1ccc2c3c(cccc13)-c1ccccc1-2` [Example 9, N-N′-Bis(3-fluoroanthenyl)guanidine hydrobromide], the “% Inhibition of ^3H-Glu Rel @ 3 μM (*veratridine-induced glutamate release assay)” value in data set [2] is given as 17* %. The IC50 came out at 7800 nM in the data set on presynaptic Ca channels and 700 nM in data set [3] (setting [6]).
For the compound `CC(C)(C)c1ccc(NC(=N)Nc2ccc(C(C)(C)C)cc2)cc1` [Example 13, N,N′-Bis(4-tort-butylphenyl)guanidine], in data set [1], the “% Inhibition of ^3H-Glu Rel @ 3 μM” value is reported as 70%. Moreover, in data set [2], the “% Inhibition of ^3H-Glu Rel @ 1 μM (*veratridine-induced glutamate release assay)” value is 62* %. Also, the IC50 turned out to be 1500 nM in the data set with presynaptic Ca channels, 4100 nM in the data set on L-type Ca channels (setting [5]) and 900 nM in data set [3] (setting [6]).
For the compound `COc1ccc(NC(=N)Nc2ccc(Cl)c(Cl)c2Cl)c2ccccc12.Cl` [Example 15, N-(4-Methoxy-1-naphthyl)-N′-(2,3,4-trichlorophenyl)guanidine.HCl], the “% Inhibition of ^3H-Glu Rel @ 3 μM” value in data set [1] is reported as 88%. The IC50 with presynaptic Ca channels and with L-type Ca channels (setting [5]) was 1700 nM throughout.
A word on the melting point: it is the temperature of the solid-liquid transition. As for `CC(C)c1ccc(CN(C(=N)N)c2ccc3c4c(cccc24)CC3)cc1` [Example 19, N-(5-Acenaphthyl)-N-(4-isopropylbenzyl)guanidine], the melting point fell in the range of 153 to 155 °C. In addition, the “% Inhibition of ^3H-Glu Rel @ 3 μM (*veratridine-induced glutamate release assay)” value in data set [2] (3 μM compound, 50 μM veratridine-induced release, rat brain synaptosomes) is recorded as 81* %. In addition, in the data set on L-type Ca channels (setting [5]), the IC50 came to 2100 nM.
With `COc1ccc([C@@H]2Sc3ccccc3N(CCN(C)C)C(=O)[C@@H]2OC(C)=O)cc1` [diltiazem, reference compound], the IC50 in the data set on L-type Ca channels (read-out: IC50, block of ^45Ca uptake, high K+ depolarization-induced 45Ca uptake) was 19700 nM.

The values above are taken from patent US6787569B1, “Therapeutic guanidines” (Cambridge NeuroScience, Inc., priority 1994, dated 2004).
